From patent publication US9879303B2, “Chromogenic glucuronidase substrates and uses” (Glycosynth Limited, priority 2013, dated 2018)
Structures can show the parent of a compound that is named as a salt.

Test system: E. coli clinical isolates
Assay: screen of strains in broth medium containing FAC
Assay type: cell-based
Set-up: key to colour: Red, Green, Black or Purple mean strong colour; Red, Green, Black or Purple mean strong colour; Red, Green, Black or Purple mean strong colour; Red, Green, Black or Purple mean strong colour; +/− means less colour than strong; Tr means a trace of colour, less than +/−; — means no colour
Conditions: for colour: 37° C. 18 hours
Description: In order to obtain a fuller picture of the sensitivity of the substrates, they were screened with 100 different clinical isolates of E. coli in a liquid medium containing FAC. The isolates were chosen at random from the Microbiology Department, Freeman Hospital, Newcastle Upon Tyne, UK. The effectiveness of the new substrates was compared with three other media which all contained indoxyl-β-D-glucuronides. One was a commercial medium, CPS ID 3 (bioMérieux SA, Lyon, France). […] This medium was employed as a control. Among the β-D-glucuronidase producing strains of E. coli there is a large variation in the quantity of the enzyme produced and it is almost certain that the CPS ID 3 medium has been rigorously optimised to allow good growth of all the target organisms and maximum expression of the target enzymes. Therefore, two indoxyl glucuronides, X-β-D-glucuronide CHA salt and Rose-β-D-glucuronide CHA salt were also tested in a simple agar medium to allow a direct comparison of the sensitivity of these Indoxyl glucuronides when used in a medium that has not been optimised for the growth of the target organism. The comparison of the results for Rose-β-D-glucuronide and the CPS ID 3 medium was of particular significance as the commercial medium also uses Rose-β-D-glucuronide for the detection of E. coli. For consistency, the four glucuronides were all chosen as their CHA salts. As already stated, it is not anticipated that the salt form is critical to their performance. Currently. X-β-D-glucuronide is often used as either the CHA salt or the sodium salt. Brenner and colleagues [K. P. Brenner et al, Appl. Environ. Microbiol., 59, 3534-3544, (1993)] found no difference in the performance of the CHA and sodium salt forms with their application using indoxyl-β-D-glucuronide, neither in respect of colour development nor in the recovery of E. coli.
The two indoxyl glucuronides used produce insoluble endpoints following hydrolysis, as does the CPS ID 3 medium. It was therefore necessary to test these two substrates on agar plates. In contrast, catechol-β-D-glucuronide (1) and DHN-β-D-glucuronide (2b) give much more soluble endpoints best suited to liquid media and were therefore tested in a broth medium. Each broth was prepared using proteose peptone (Oxoid, Basingstoke, UK) (2 g), NaCl (1 g) and FAC (100 mg) in DI water (180 mL). This mixture was autoclaved and cooled to room temperature before being dispensed into bijoux (100×1.8 mL). Catechol β-D-glucuronide CHA salt (1) or DHN-β-D-glucuronide CHA salt (2b) (60 mg) were each dissolved in water (20 mL) and filtered to sterilize before being aseptically dispensed into successive bijoux (0.2 mL) containing the broth solution. The broth/substrate solutions were then inoculated with bacterial suspensions made up to 0.5 McFarland standard (2 μL per bijoux). X-β-D-glucuronide CHA salt (Glycosynth Ltd, Warrington, UK) (10 mg) was dissolved in NMP (200 μL). Rose-β-D-glucuronide CHA salt (Glycosynth Ltd, Warrington, UK) (20 mg) was dissolved in NMP (200 μL). These solutions were then added to Columbia agar (Oxoid, Basingstoke, UK) (100 mL) and inoculated with bacterial suspensions made up to 0.5 McFarland standard (1 μL). The plates and broths were incubated at 37° C. for 18 hours in air.

[1] = 100 E. coli strains after 18 h incubation, broth

O=C(O)C1OC(Oc2cc3ccccc3cc2O)C(O)C(O)C1O [Compound 2b, DHN-β-D-Glucuronide CHA Salt]
82%: % Sensitivity [1]
purple solutions: colour of positive solutions (broth with FAC, in words)
82: Positive strains [1]
—: colour (E. coli 260313A, broth) | colour (E. coli 260316T, broth) | colour (E. coli 260333P, broth) | colour (E. coli 260364H, broth) | colour (E. coli 260390B, broth) | colour (E. coli 260400N, broth) | colour (E. coli 260406A, broth) | colour (E. coli 260437A, broth) | colour (E. coli 260471B, broth) | colour (E. coli 260478N, broth) | colour (E. coli 260483R, broth) | colour (E. coli 260505Q, broth) | colour (E. coli 260514G, broth) | colour (E. coli 260537E, broth) | colour (E. coli 260538H, broth) | colour (E. coli 260553X, broth) | colour (E. coli 260578D, broth) | colour (E. coli 2603121P, broth) | colour (E. coli O157 non-toxigenic, broth)
18: Negative strains [1]
Purple: colour (E. coli 260262P, broth) | colour (E. coli 260280Z, broth) | colour (E. coli 260310H, broth) | colour (E. coli 260327V, broth) | colour (E. coli 260330Y, broth) | colour (E. coli 260345F, broth) | colour (E. coli 260348K, broth) | colour (E. coli 260354W, broth) | colour (E. coli 260370C, broth) | colour (E. coli 260375E, broth) | colour (E. coli 260396Z, broth) | colour (E. coli 260398Q, broth) | colour (E. coli 260401Q, broth) | colour (E. coli 260402H, broth) | colour (E. coli 260404W, broth) | colour (E. coli 260405P, broth) | colour (E. coli 260406Y, broth) | colour (E. coli 260407F, broth) | colour (E. coli 260408C, broth) | colour (E. coli 260411Z, broth) | colour (E. coli 260412Q, broth) | colour (E. coli 260414H, broth) | colour (E. coli 260415Y, broth) | colour (E. coli 260416W, broth) | colour (E. coli 260417P, broth) | colour (E. coli 260422Y, broth) | colour (E. coli 260424P, broth) | colour (E. coli 260425A, broth) | colour (E. coli 260426F, broth) | colour (E. coli 260428T, broth) | colour (E. coli 260431N, broth) | colour (E. coli 260432E, broth) | colour (E. coli 260433H, broth) | colour (E. coli 260434Y, broth) | colour (E. coli 260435W, broth) | colour (E. coli 260436P, broth) | colour (E. coli 260438F, broth) | colour (E. coli 260439C, broth) | colour (E. coli 260440S, broth) | colour (E. coli 260441G, broth) | colour (E. coli 260458Y, broth) | colour (E. coli 260459W, broth) | colour (E. coli 260463D, broth) | colour (E. coli 260464G, broth) | colour (E. coli 260479Q, broth) | colour (E. coli 260480M, broth) | colour (E. coli 260481J, broth) | colour (E. coli 260485D, broth) | colour (E. coli 260486L, broth) | colour (E. coli 260492J, broth) | colour (E. coli 260494B, broth) | colour (E. coli 260495R, broth) | colour (E. coli 260497D, broth) | colour (E. coli 260502G, broth) | colour (E. coli 260503Z, broth) | colour (E. coli 260504N, broth) | colour (E. coli 260506E, broth) | colour (E. coli 260508Y, broth) | colour (E. coli 260509W, broth) | colour (E. coli 260510R, broth) | colour (E. coli 260511X, broth) | colour (E. coli 260515Z, broth) | colour (E. coli 260521S, broth) | colour (E. coli 260522Z, broth) | colour (E. coli 260532S, broth) | colour (E. coli 260533G, broth) | colour (E. coli 260536Q, broth) | colour (E. coli 260539Y, broth) | colour (E. coli 260541R, broth) | colour (E. coli 260545G, broth) | colour (E. coli 260547N, broth) | colour (E. coli 260548Q, broth) | colour (E. coli 260549E, broth) | colour (E. coli 260554D, broth) | colour (E. coli 260555L, broth) | colour (E. coli 260563B, broth) | colour (E. coli 260564R, broth) | colour (E. coli 2604399E, broth)
